Test results: patent US20060123501A1, “Method for treating inflammatory disorders” (priority 2004, published 2006)
Like-named read-outs stand apart in the source and are kept apart here.

B1: IL-7: cIAP2-inducing agent that imparts T cells with increased apoptotic resistance (protein, UniProt P13232 26-177, looked up)
Interleukin-7: DCDIEGKDGKQYESVLMVSIDQLLDSMKEIGSNCLNNEFNFFKRHICDANKEGMFLFRAARKLRQFLKMNSTGDFDLHLLKVSEGTTILLNCTGQVKGRKPAALGEAQPTKSLEENKSLKEQKKLNDLCFLKRLLQEIKTCWNKILMGTKEH

Key:
[1] = tested on: cIAP2−/− and control mice; settings: LPS 0 μg/kg, D-galactosamine 0.6 g/kg i.p.
From the text: In addition, we exposed cIAP2^−/− mice to a second mode of LPS-induced toxicity, where treatment with D-galactosamine (DGLBN) sensitized mice to endotoxic shock.

spleen derived T cells = test: Dexamethasone-induced death of T cells pre-incubated with IL-7; assay type: cell-based, mouse; settings: dexamethasone 100 nM
Protocol: Peritoneal-derived macrophages from cIAP2^−/− (lower panels) and cIAP2^+/+ mice (upper panels) were either pre-treated with LPS for 4 h or not pre-treated prior to exposure to α-Fas antibody and then TUNEL stained to assess cell viability (A). Percentages of viable cells (n=5, average of triplicate wells per mouse, P values were <0.01) are shown within each TUNEL stained panel along with the standard deviation. cIAP2^−/−-derived (open shapes) and cIAP2^+/+-derived (solid shapes) T cells were pre-incubated with a range of IL-7 concentrations and then exposed to dexamethasone and T cell survival was monitored over a 12 h period (B) (n=3, average of triplicate wells per mouse, results are mean±s.d., P values at the 12 h point were <0.05). Peritoneal-derived cell numbers are shown for macrophages of cIAP2^−/− mice and littermate control cIAP2^+/+ mice injected i.p. with LPS(C). […]
Confluent primary cultures of peritoneal-derived macrophages were either pre-treated with LPS (10 μg/ml, 4 h) or not pre-treated prior to exposure to α-Fas antibody (20 μg/ml, clone Jo2) and then TUNEL stained (Roche) to assess cell viability. Primary cultures of spleen derived T cells were pre-incubated with a range of IL-7 concentrations (0, 5, and 10 ng/ml) and then exposed to dexamethasone (100 nM) and T cell survival was monitored over a 12 h period.

| Molecule | Survival ([1]; cIAP2+/+ mice) | Survival ([1]; cIAP2−/− mice) | Resistance to apoptosis with or without IL-7 pretreatment (spleen derived T cells; cIAP2−/− T cells) | Resistance against dexamethasone-induced death after IL-7 pre-exposure (spleen derived T cells; wild-type T cells, IL-7 5 or 10 ng/ml) |
| --- | --- | --- | --- | --- |
| N[C@H]1C(O)O[C@H](CO)[C@H](O)[C@@H]1O (stereo partly drawn) [D-galactosamine] | 6/6 | 6/6 | – | – |
| B1 | – | – | displayed no difference in the resistance to apoptosis | showed a dose dependent resistance against dexamethasone-induced death |
